Source: US20250129104A1, “7H-PYRROLO[2,3-D]PYRIMIDINES AND PREPARATION AND USES THEREOF” (BioSplice Therapeutics, Inc., priority 2021, published 2025)

Target: recombinant DYRK1A kinase (Homo sapiens (Human), UniProt Q13627)
Assay: DYRK1A kinase assay (Ser/Thr 18 peptide Z-lyte FRET assay)
Type: biochemical
Conditions: DYRK1A kinase activity; 15 μM ATP, 1 h room temperature; method text calls the value IC50
Outline: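 Recombinant human DYRK1A (0.25 μg/mL) with 15 μM ATP and 4 μM Ser/Thr 18 peptide, 1 h at room temperature with compound (11-point, 1:3, 10 μM top, duplicate). Z-lyte development 1 h, then coumarin/fluorescein FRET emission ratio converted to % phosphorylation; IC50 by non-linear regression.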

EC50 | Molecule
0.0188 µM | C[C@@H](Nc1ncc2c(-c3ccn4ncnc4c3)c[nH]c2n1)C(F)(F)F [Compound 806, (R)-5-([1,2,4]Triazolo[1,5-a]pyridin-7-yl)-N-(1,1,1-trifluoropropan-2-yl)-7H-pyrrolo[2,3-d]pyrimidin-2-amine]
0.0016 µM | COc1nc(N[C@H](C)C(F)(F)F)nc2[nH]cc(-c3ccc4nccn4c3)c12 [Compound 2174, (R)-5-(Imidazo[1,2-a]pyridin-6-yl)-4-methoxy-N-(1,1,1-trifluoropropan-2-yl)-7H-pyrrolo[2,3-d]pyrimidin-2-amine]
0.0019 µM | CO[C@H]1CC[C@H](Nc2ncc3c(-c4ccn5nccc5c4)c[nH]c3n2)CC1 [Compound 3277, N-(trans-4-Methoxycyclohexyl)-5-(pyrazolo[1,5-a]pyridin-5-yl)-7H-pyrrolo[2,3-d]pyrimidin-2-amine]
0.0416 µM | CN1CCN(c2ncnc3ccc(-c4c[nH]c5nc(N)ncc45)cc23)CC1 [Compound 1986, 5-(4-(4-Methylpiperazin-1-yl)quinazolin-6-yl)-7H-pyrrolo[2,3-d]pyrimidin-2-amine]
0.0453 µM | Cc1cn2cc(-c3c[nH]c4nc(NC5CCC(F)(F)CC5)ncc34)cc(F)c2n1 [Compound 258, N-(4,4-Difluorocyclohexyl)-5-(8-fluoro-2-methylimidazo[1,2-a]pyridin-6-yl)-7H-pyrrolo[2,3-d]pyrimidin-2-amine]
0.25 µM | COc1nc(NC2CCC(F)(F)CC2)nc2[nH]cc(-c3ccc4nc(C)n(CC(F)F)c4n3)c12 [Compound 2279, N-(4,4-Difluorocyclohexyl)-5-(3-(2,2-difluoroethyl)-2-methyl-3H-imidazo[4,5-b]pyridin-5-yl)-4-methoxy-7H-pyrrolo[2,3-d]pyrimidin-2-amine]
0.0035 µM | CCOc1nc(N[C@H]2CC[C@@H](O)CC2)nc2[nH]cc(-c3ccn4nccc4c3)c12 [Compound 2219, cis-4-((4-Ethoxy-5-(pyrazolo[1,5-a]pyridin-5-yl)-7H-pyrrolo[2,3-d]pyrimidin-2-yl)amino)cyclohexan-1-ol]
0.287 µM | COc1nc(N[C@@H]2CCOC[C@H]2OC)nc2[nH]cc(-c3ccn4nccc4c3)c12 [Compound 2319, 4-Methoxy-N-((3S,4R)-3-methoxytetrahydro-2H-pyran-4-yl)-5-(pyrazolo [1,5-a]pyridin-5-yl)-7H-pyrrolo[2,3-d]pyrimidin-2-amine]
0.0132 µM | C[C@@H](Nc1ncc2c(-c3ccn4nccc4n3)c[nH]c2n1)C(F)(F)F [Compound 1651, (R)-5-(Pyrazolo[1,5-a]pyrimidin-5-yl)-N-(1,1,1-trifluoropropan-2-yl)-7H-pyrrolo[2,3-d]pyrimidin-2-amine]
0.0032 µM | COc1nc(NC2CCC(F)(F)CC2)nc2[nH]cc(-c3ccn4nccc4c3)c12 [Compound 2206, N-(4,4-Difluorocyclohexyl)-4-methoxy-5-(pyrazolo[1,5-a]pyridin-5-yl)-7H-pyrrolo[2,3-d]pyrimidin-2-amine]
0.0016 µM | COc1nc(NC2CCC3(CC2)OCCO3)nc2[nH]cc(-c3ccn4nccc4c3)c12 [Compound 2215, 4-Methoxy-5-(pyrazolo[1,5-a]pyridin-5-yl)-N-(1,4-dioxaspiro[4.5]decan-8-yl)-7H-pyrrolo[2,3-d]pyrimidin-2-amine]
0.0022 µM | COc1nc(NC2CCOCC2)nc2[nH]cc(-c3ccn4nccc4c3)c12 [Compound 2217, 4-Methoxy-5-(pyrazolo[1,5-a]pyridin-5-yl)-N-(tetrahydro-2H-pyran-4-yl)-7H-pyrrolo[2,3-d]pyrimidin-2-amine]
0.0721 µM | CC(C)Nc1ncc2c(-c3ccn4ncnc4c3)c[nH]c2n1 [Compound 804, 5-([1,2,4]Triazolo[1,5-a]pyridin-7-yl)-N-isopropyl-7H-pyrrolo[2,3-d]pyrimidin-2-amine]
0.0605 µM | CC(C)CNc1ncc2c(-c3cc(F)c4nccn4c3)c[nH]c2n1 [Compound 196, 5-(8-Fluoroimidazo[1,2-a]pyridin-6-yl)-N-isobutyl-7H-pyrrolo[2,3-d]pyrimidin-2-amine]
0.0023 µM | c1cc2nc(-c3c[nH]c4nc(NC5CCC6(CC5)COC6)ncc34)ccn2n1 [Compound 3435, 5-(Pyrazolo[1,5-a]pyrimidin-5-yl)-N-(2-oxaspiro[3.5]nonan-7-yl)-7H-pyrrolo[2,3-d]pyrimidin-2-amine]
0.0012 µM | 4-Methoxy-N-(cis-4-methoxycyclohexyl)-5-(1-methyl-1H-benzo[d][1,2,3]triazol-6-yl)-7H-pyrrolo[2,3-d]pyrimidin-2-amine [Compound 3114]
0.015 µM | [2H]C([2H])([2H])O[C@H]1CC[C@@H](Nc2nc(OC)c3c(-c4cc(F)c5nccn5c4)c[nH]c3n2)CC1 [Compound 2256, 5-(8-Fluoroimidazo[1,2-a]pyridin-6-yl)-4-methoxy-N-(cis-4-(methoxy-d3)cyclohexyl)-7H-pyrrolo[2,3-d]pyrimidin-2-amine]
0.174 µM | CN1CCC(c2cnc3c(F)cc(-c4c[nH]c5nc(C6CC6)ncc45)cn23)CC1 [Compound 403, 2-Cyclopropyl-5-(8-fluoro-3-(1-methylpiperidin-4-yl)imidazo[1,2-a]pyridin-6-yl)-7H-pyrrolo[2,3-d]pyrimidine]

EC50 | Molecule
0.0274 µM | Fc1cc(-c2c[nH]c3nc(NCC4CC4)ncc23)cn2ccnc12 [Compound 207, N-(Cyclopropylmethyl)-5-(8-fluoroimidazo[1,2-a]pyridin-6-yl)-7H-pyrrolo [2,3-d]pyrimidin-2-amine]
0.0019 µM | FC(F)(CNc1ncc2c(-c3ccc4ncnn4c3)c[nH]c2n1)C1CC1 [Compound 743, 5-([1,2,4]Triazolo[1,5-a]pyridin-6-yl)-N-(2-cyclopropyl-2,2-difluoroethyl)-7H-pyrrolo[2,3-d]pyrimidin-2-amine]
0.0039 µM | OCCO[C@H]1CC[C@@H](Nc2ncc3c(-c4ccn5nccc5c4)c[nH]c3n2)CC1 [Compound 2202, 2-((cis-4-((5-(Pyrazolo[1,5-a]pyridin-5-yl)-7H-pyrrolo[2,3-d]pyrimidin-2-yl)amino)cyclohexyl)oxy)ethan-1-ol]
0.0125 µM | CN1CCC(Nc2ncc3c(-c4ccc5nccnc5c4)c[nH]c3n2)CC1 [Compound 1932, N-(1-Methylpiperidin-4-yl)-5-(quinoxalin-6-yl)-7H-pyrrolo[2,3-d]pyrimidin-2-amine]
0.852 µM | c1nc2ccc(-c3c[nH]c4nc(C5CCC5)ncc34)cn2n1 [Compound 721, 6-(2-Cyclobutyl-7H-pyrrolo[2,3-d]pyrimidin-5-yl)-[1,2,4]triazolo[1,5-a]pyridine]
0.0019 µM | COc1nc(NC2CCC3(CC2)OCCO3)nc2[nH]cc(-c3cc(F)c4nccn4c3)c12 [Compound 2188, 5-(8-Fluoroimidazo[1,2-a]pyridin-6-yl)-4-methoxy-N-(1,4-dioxaspiro[4.5]decan-8-yl)-7H-pyrrolo[2,3-d]pyrimidin-2-amine]
0.0051 µM | CC(C)(F)CNc1ncc2c(-c3ccn4ncc(C5CC5)c4n3)c[nH]c2n1 [Compound 1695, 5-(3-Cyclopropylpyrazolo[1,5-a]pyrimidin-5-yl)-N-(2-fluoro-2-methylpropyl)-7H-pyrrolo[2,3-d]pyrimidin-2-amine]
0.0046 µM | FC(F)(F)CNc1ncc2c(-c3ccc4nccn4c3)c[nH]c2n1 [Compound 114, 5-(Imidazo[1,2-a]pyridin-6-yl)-N-(2,2,2-trifluoroethyl)-7H-pyrrolo[2,3-d]pyrimidin-2-amine]
0.0092 µM | FC1(F)CCC(Nc2ncc3c(-c4ccn5nccc5n4)c[nH]c3n2)CC1 [Compound 1663, N-(4,4-Difluorocyclohexyl)-5-(pyrazolo[1,5-a]pyrimidin-5-yl)-7H-pyrrolo [2,3-d]pyrimidin-2-amine]
0.0427 µM | COc1nc(CC(C)C)nc2[nH]cc(-c3ccc4ncccc4c3)c12 [Compound 1857, 6-(2-Isobutyl-4-methoxy-7H-pyrrolo[2,3-d]pyrimidin-5-yl)quinoline]
0.175 µM | COc1nc(NC2CCC(F)(F)CC2)nc2[nH]cc(-c3ccc4ncccc4c3)c12 [Compound 2227, N-(4,4-Difluorocyclohexyl)-4-methoxy-5-(quinolin-6-yl)-7H-pyrrolo[2,3-d]pyrimidin-2-amine]
0.0481 µM | CC(C)(C)CNc1ncc2c(-c3ccc4ncnn4c3)c[nH]c2n1 [Compound 728, 5-([1,2,4]Triazolo[1,5-a]pyridin-6-yl)-N-neopentyl-7H-pyrrolo[2,3-d]pyrimidin-2-amine]
0.165 µM | C[C@H](Nc1ncc2c(-c3ccn4ncnc4c3)c[nH]c2n1)C(F)(F)F [Compound 807, (S)-5-([1,2,4]Triazolo[1,5-a]pyridin-7-yl)-N-(1,1,1-trifluoropropan-2-yl)-7H-pyrrolo[2,3-d]pyrimidin-2-amine]
0.0428 µM | Cc1nc2ccc(-c3c[nH]c4nc(NCC(C)(C)F)ncc34)nc2n1CC(F)F [Compound 643, 5-(3-(2,2-Difluoroethyl)-2-methyl-3H-imidazo[4,5-b]pyridin-5-yl)-N-(2-fluoro-2-methylpropyl)-7H-pyrrolo[2,3-d]pyrimidin-2-amine]
0.2 µM | c1nc2ccc(-c3c[nH]c4nc(C5CC5)ncc34)cn2n1 [Compound 720, 6-(2-Cyclopropyl-7H-pyrrolo[2,3-d]pyrimidin-5-yl)-[1,2,4]triazolo[1,5-a]pyridine]
0.0013 µM | CCOc1nc(N[C@H]2CC[C@@H](O)CC2)nc2[nH]cc(-c3ccc4nccnc4c3)c12 [Compound 2232, cis-4-((4-Ethoxy-5-(quinoxalin-6-yl)-7H-pyrrolo[2,3-d]pyrimidin-2-yl)amino)cyclohexan-1-ol]
0.768 µM | COc1ccc(-c2c[nH]c3ncnc(N[C@H]4CC[C@H](N5CCOCC5)CC4)c23)cn1 [Compound 8, 5-(6-Methoxypyridin-3-yl)-N-(trans-4-morpholinocyclohexyl)-7H-pyrrolo [2,3-d]pyrimidin-4-amine]
0.0036 µM | COc1nc(N[C@H]2CC[C@@H](OCC(F)F)CC2)nc2[nH]cc(-c3cc(F)c4nccn4c3)c12 [Compound 2187, N-(cis-4-(2,2-Difluoroethoxy)cyclohexyl)-5-(8-fluoroimidazo[1,2-a]pyridin-6-yl)-4-methoxy-7H-pyrrolo[2,3-d]pyrimidin-2-amine]
